In PubChem BioAssay (NCI):
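Results reflect a 48-hour exposure of cells in 96-well plates to compound at five concentrations. GI50 is the concentration that inhibits growth by half. TGI: total growth inhibition.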

Tests used:
Assay in all cases: NCI tumour cell line growth inhibition, 48 h
786-0 renal = tested on: 786-0 renal
A498 renal = tested on: A498 renal
A549 NSCLC = tested on: A549 NSCLC
ACHN renal = tested on: ACHN renal
BT-549 breast = tested on: BT-549 breast
CAKI-1 renal = tested on: CAKI-1 renal
CCRF-CEM leukemia = tested on: CCRF-CEM leukemia
COLO 205 colon = tested on: COLO 205 colon
DU-145 prostate = tested on: DU-145 prostate
HCC-2998 colon = tested on: HCC-2998 colon
HCT-116 colon = tested on: HCT-116 colon
HCT-15 colon = tested on: HCT-15 colon
HL-60(TB) leukemia = tested on: HL-60(TB) leukemia
HOP-62 NSCLC = tested on: HOP-62 NSCLC
HOP-92 NSCLC = tested on: HOP-92 NSCLC
HS 578T breast = tested on: HS 578T breast
HT29 colon = tested on: HT29 colon
IGROV1 ovarian = tested on: IGROV1 ovarian
K-562 leukemia = tested on: K-562 leukemia
KM12 colon = tested on: KM12 colon
LOX IMVI melanoma = tested on: LOX IMVI melanoma
M14 melanoma = tested on: M14 melanoma
MALME-3M melanoma = tested on: MALME-3M melanoma
MCF7 breast = tested on: MCF7 breast
MDA-MB-231 breast = tested on: MDA-MB-231 breast
MDA-MB-435 = tested on: MDA-MB-435
MDA-MB-468 breast = tested on: MDA-MB-468 breast
MOLT-4 leukemia = tested on: MOLT-4 leukemia
NCI-H226 lung = tested on: NCI-H226 lung
NCI-H23 lung = tested on: NCI-H23 lung
NCI-H460 lung = tested on: NCI-H460 lung
NCI-H522 lung = tested on: NCI-H522 lung
OVCAR-3 ovarian = tested on: OVCAR-3 ovarian
OVCAR-4 ovarian = tested on: OVCAR-4 ovarian
OVCAR-5 ovarian = tested on: OVCAR-5 ovarian
OVCAR-8 ovarian = tested on: OVCAR-8 ovarian
PC-3 prostate = tested on: PC-3 prostate
RPMI-8226 leukemia = tested on: RPMI-8226 leukemia
RXF 393 renal = tested on: RXF 393 renal
SF-268 CNS = tested on: SF-268 CNS
SF-295 CNS = tested on: SF-295 CNS
SF-539 CNS = tested on: SF-539 CNS
SK-MEL-2 melanoma = tested on: SK-MEL-2 melanoma
SK-MEL-28 melanoma = tested on: SK-MEL-28 melanoma
SK-MEL-5 melanoma = tested on: SK-MEL-5 melanoma
SK-OV-3 ovarian = tested on: SK-OV-3 ovarian
SN12C renal = tested on: SN12C renal
SNB-19 CNS = tested on: SNB-19 CNS
SNB-75 CNS = tested on: SNB-75 CNS
SW-620 colon = tested on: SW-620 colon
T-47D breast = tested on: T-47D breast
TK-10 renal = tested on: TK-10 renal
U251 CNS = tested on: U251 CNS
UACC-257 melanoma = tested on: UACC-257 melanoma
UACC-62 melanoma = tested on: UACC-62 melanoma
UO-31 renal = tested on: UO-31 renal

Molecule `Nc1cccnc1/C=N/NC(=S)NCCNC(=O)c1ccc(-n2nc(-c3ccccc3O)nc2-c2ccccc2O)cc1` has a GI50 (786-0 renal) of 790 nM, a TGI (786-0 renal) of 3.73 µM and a GI50 (A498 renal) of 29.7 µM. For the same molecule, the TGI (A498 renal) was > 100 µM, the GI50 (A549 NSCLC) was 1230 nM and the TGI (A549 NSCLC) was > 23.8 µM. For the same molecule, the GI50 (ACHN renal) was 1210 nM, the TGI (ACHN renal) was 18.5 µM and the GI50 (BT-549 breast) was 374 nM. The TGI (BT-549 breast) was 2830 nM, the GI50 (CAKI-1 renal) was 1240 nM and the TGI (CAKI-1 renal) was > 20.9 µM. The GI50 (CCRF-CEM leukemia) was 186 nM, the TGI (CCRF-CEM leukemia) was 1210 nM and the GI50 (COLO 205 colon) was 329 nM. For the same molecule, the TGI (COLO 205 colon) was 11.7 µM, the GI50 (DU-145 prostate) was 1600 nM and the TGI (DU-145 prostate) was > 100 µM. The GI50 (HCC-2998 colon) was 533 nM, the TGI (HCC-2998 colon) was 8.16 µM and the GI50 (HCT-116 colon) was 305 nM. For the same molecule, the TGI (HCT-116 colon) was 6.67 µM, the GI50 (HCT-15 colon) was 1980 nM and the TGI (HCT-15 colon) was 11.7 µM. It also gave a GI50 (HL-60(TB) leukemia) of 261 nM, a TGI (HL-60(TB) leukemia) of 901 nM and a GI50 (HOP-62 NSCLC) of 487 nM. It also gave a TGI (HOP-62 NSCLC) of 5.46 µM, a GI50 (HOP-92 NSCLC) of 283 nM and a TGI (HOP-92 NSCLC) of 5.16 µM. For the same molecule, the GI50 (HS 578T breast) was 232 nM, the TGI (HS 578T breast) was > 100 µM and the GI50 (HT29 colon) was 472 nM. For the same molecule, the TGI (HT29 colon) was 2720 nM, the GI50 (IGROV1 ovarian) was 355 nM and the TGI (IGROV1 ovarian) was 11.6 µM. The GI50 (K-562 leukemia) was 115 nM, the TGI (K-562 leukemia) was > 100 µM and the GI50 (KM12 colon) was 480 nM. For the same molecule, the TGI (KM12 colon) was 6.53 µM, the GI50 (LOX IMVI melanoma) was 331 nM and the TGI (LOX IMVI melanoma) was 1880 nM. It also gave a GI50 (M14 melanoma) of 425 nM, a TGI (M14 melanoma) of 2470 nM and a GI50 (MALME-3M melanoma) of 628 nM. It also gave a TGI (MALME-3M melanoma) of 8.94 µM, a GI50 (MCF7 breast) of 189 nM and a TGI (MCF7 breast) of 4.9 µM. The GI50 (MDA-MB-231 breast) was 471 nM, the TGI (MDA-MB-231 breast) was 14.9 µM and the GI50 (MDA-MB-435) was 561 nM. For the same molecule, the TGI (MDA-MB-435) was > 100 µM, the GI50 (MDA-MB-468 breast) was 249 nM and the TGI (MDA-MB-468 breast) was 935 nM. The GI50 (MOLT-4 leukemia) was 300 nM, the TGI (MOLT-4 leukemia) was > 100 µM and the GI50 (NCI-H226 lung) was 803 nM. The TGI (NCI-H226 lung) was 4.85 µM, the GI50 (NCI-H23 lung) was 454 nM and the TGI (NCI-H23 lung) was 6.97 µM. The GI50 (NCI-H460 lung) was 396 nM, the TGI (NCI-H460 lung) was 2460 nM and the GI50 (NCI-H522 lung) was 154 nM. The TGI (NCI-H522 lung) was 798 nM, the GI50 (OVCAR-3 ovarian) was 366 nM and the TGI (OVCAR-3 ovarian) was 15.9 µM. The GI50 (OVCAR-4 ovarian) was 729 nM, the TGI (OVCAR-4 ovarian) was > 100 µM and the GI50 (OVCAR-5 ovarian) was 1570 nM. For the same molecule, the TGI (OVCAR-5 ovarian) was > 28.4 µM, the GI50 (OVCAR-8 ovarian) was 418 nM and the GI50 (PC-3 prostate) was 376 nM. For the same molecule, the TGI (PC-3 prostate) was 13.2 µM, the GI50 (RPMI-8226 leukemia) was 344 nM and the TGI (RPMI-8226 leukemia) was 2090 nM. The GI50 (RXF 393 renal) was 1040 nM, the TGI (RXF 393 renal) was 4.06 µM and the GI50 (SF-268 CNS) was 557 nM. The TGI (SF-268 CNS) was > 64.4 µM, the GI50 (SF-295 CNS) was 541 nM and the TGI (SF-295 CNS) was 2970 nM. It also gave a GI50 (SF-539 CNS) of 106 nM, a TGI (SF-539 CNS) of 1360 nM and a GI50 (SK-MEL-2 melanoma) of 765 nM. For the same molecule, the TGI (SK-MEL-2 melanoma) was 9.46 µM, the GI50 (SK-MEL-28 melanoma) was 532 nM and the TGI (SK-MEL-28 melanoma) was > 100 µM. The GI50 (SK-MEL-5 melanoma) was 492 nM, the TGI (SK-MEL-5 melanoma) was 2160 nM and the GI50 (SK-OV-3 ovarian) was 594 nM. It also gave a TGI (SK-OV-3 ovarian) of 3.51 µM, a GI50 (SN12C renal) of 494 nM and a TGI (SN12C renal) of 6.35 µM. For the same molecule, the GI50 (SNB-19 CNS) was 337 nM, the TGI (SNB-19 CNS) was > 100 µM and the GI50 (SNB-75 CNS) was 328 nM. The TGI (SNB-75 CNS) was > 33.8 µM, the GI50 (SW-620 colon) was 648 nM and the TGI (SW-620 colon) was > 100 µM. For the same molecule, the GI50 (T-47D breast) was 225 nM, the TGI (T-47D breast) was 1910 nM and the GI50 (TK-10 renal) was 1270 nM. For the same molecule, the TGI (TK-10 renal) was > 29.7 µM, the GI50 (U251 CNS) was 305 nM and the GI50 (UACC-257 melanoma) was 838 nM. For the same molecule, the TGI (UACC-257 melanoma) was > 20.7 µM, the GI50 (UACC-62 melanoma) was 236 nM and the TGI (UACC-62 melanoma) was 1050 nM. It also gave a GI50 (UO-31 renal) of 1380 nM and a TGI (UO-31 renal) of 5.23 µM.
